Test results taken from patent US12134620B2 (ARAXES PHARMA LLC, priority 2018, dated 2024).

These compounds were tested against T1, KRAS G12C 1-169, his-tagged protein, GDP-loaded (Homo sapiens, UniProt P01116, G12C) (assay: Biochemical assay: covalent modification of KRAS G12C, analysed by mass spectrometry (RapidFire/TOF or Q-Exactive)). Details: Modification activity, modification percentage from MS peak intensities.
T1 construct: KRAS G12C 1-169, his-tagged protein, GDP-loaded; His tag
Type: binding
In short: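 GDP-loaded His-tagged KRAS G12C 1-169 (2 μM or 0.5 μM in 20 mM Hepes, 150 mM NaCl, 1 mM MgCl2) reacted with compound at 32 μM or 8 μM final (2% DMSO) for a set time, then quenched with formic acid. Percent covalent modification from deconvoluted intact-protein MS peak intensities (RapidFire/TOF or LC-Q Exactive).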
Note: time not given here.

Compound | Binding %
C=CC(=O)N1CC2(CC(=O)N(c3nc(N4CCOCC4)nc(-c4c(C)ccc5[nH]ncc45)c3C#N)C2)C1 [Compound I-130, 4-(2-acryloyl-7-oxo-2,6-diazaspiro[3.4]octan-6-yl)-6-(5-methyl-1H-indazol-4-yl)-2-morpholinopyrimidine-5-carbonitrile] | ++ (++ indicates binding activity from 50 to 85%)
C=CC(=O)N1CC2(CCN(c3nc(OC4CCOCC4)nc(-c4c(C)ccc5[nH]ncc45)c3C#N)C2)C1 [Compound I-25, 4-(2-acryloyl-2,6-diazaspiro[3.4]octan-6-yl)-6-(5-methyl-1H-indazol-4-yl)-2-((tetrahydro-2H-pyran-4-yl)oxy)pyrimidine-5-carbonitrile] | + (+ indicates binding activity greater than 0% and up to 50%)
C=CC(=O)N1CC2(CCN(c3nc(OCCCN(C)C)nc(-c4c(C)ccc5[nH]ncc45)c3C#N)CC2)C1 [Compound I-86, 4-(2-acryloyl-2,7-diazaspiro[3.5]nonan-7-yl)-2-(3-(dimethylamino)pro-poxy)-6-(5-methyl-1H-indazol-4-yl)pyrimidine-5-carbonitrile] | ++ (++ indicates binding activity from 50 to 85%)
C=CC(=O)N1CC2(CCN(c3nc(N4CCC(N5CCN(C)[C@@H](C)C5)CC4)nc(-c4c(C)ccc5[nH]ncc45)c3C#N)C2)C1 [Compound I-191, 4-(2-acryloyl-2,6-diazaspiro[3.4]octan-6-yl)-2-(4-((S)-3,4-dimethylpiperazin-1-yl)piperidin-1-yl)-6-(5-methyl-1H-indazol-4-yl)pyrimidine-5-carbonitrile] | +++ (+++ indicates binding activity greater than 85%)
C=CC(=O)N1CC2(CCN(c3nc(OC[C@@H]4CCCN4C)nc(NCc4cccnc4)c3C#N)C2)C1 [Compound I-18, (S)-4-(2-acryloyl-2,6-diazaspiro[3.4]octan-6-yl)-2-((1-methylpyrrolidin-2-yl)methoxy)-6-((pyridin-3-ylmethyl)amino)pyri-midine-5-carbonitrile] | + (+ indicates binding activity greater than 0% and up to 50%)
C=CC(=O)N1CC2(CCN(c3ncnc(-c4cc5[nH]ncc5cc4C)c3C#N)C2)C1 [Compound I-235, 4-(2-acryloyl-2,6-diazaspiro[3.4]octan-6-yl)-6-(5-methyl-1H-indazol-6-yl)pyrimidine-5-carbonitrile] | + (+ indicates binding activity greater than 0% and up to 50%)
CC#CC(=O)N1CC2(CCN(c3cncc(-c4c(O)cccc4F)c3C#N)C2)C1 [Compound I-270, 3-(2-(but-2-ynoyl)-2,6-diazaspiro[3.4]octan-6-yl)-5-(2-fluoro-6-hydroxyphenyl)isoni-cotinonitrile] | + (+ indicates binding activity greater than 0% and up to 50%)
C=CC(=O)N1CC2(CCN(c3nc(OCc4ccnnc4)nc(-c4c(C)ccc5cnn(C)c45)c3C#N)C2)C1 [Compound I-164, 4-(2-acryloyl-2,6-diazaspiro[3.4]octan-6-yl)-6-(1,6-dimethyl-1H-indazol-7-yl)-2-(pyridazin-4-ylmethoxy)pyrimidine-5-carbonitrile] | ++ (++ indicates binding activity from 50 to 85%)
C=CC(=O)N1CC2(CCN(c3cncc(-c4c(C)ccc5cnn(C)c45)c3C#N)CC2)C1 [Compound I-265, 3-(2-acryloyl-2,7-diazaspiro[3.5]nonan-7-yl)-5-(1,6-dimethyl-1H-indazol-7-yl)isonicotinonitrile] | + (+ indicates binding activity greater than 0% and up to 50%)
C=CC(=O)N1CC2(CCN(c3nc(OCc4cc(F)cc(F)c4)nc(-c4c(C)ccc5[nH]ncc45)c3C#N)C2)C1 [Compound I-152] | ++ (++ indicates binding activity from 50 to 85%)
C=CC(=O)N1CC2(CCN(c3nc(OCc4ccccn4)nc(-c4cccc5ccccc45)c3C#N)C2)C1 [Compound I-113, 4-(2-acryloyl-2,6-diazaspiro[3.4]octan-6-yl)-6-(naphthalen-1-yl)-2-(pyridin-2-ylmethoxy)pyrimidine-5-carbonitrile] | + (+ indicates binding activity greater than 0% and up to 50%)
C=CC(=O)N1CC2(CCN(c3nc(N4CCC(F)(F)C4)nc(-c4c(C)ccc5[nH]ncc45)c3C#N)C2)C1 [Compound I-27, 4-(2-acryloyl-2,6-diazaspiro[3.4]octan-6-yl)-2-(3,3-difluoropyrrolidin-1-yl)-6-(5-methyl-1H-indazol-4-yl)pyrimidine-5-carbonitrile] | +++ (+++ indicates binding activity greater than 85%)
C=CC(=O)N1CC2(CCN(c3nc(OC[C@H]4CCCN4C)nc(-c4c(C)ccc5[nH]ncc45)c3C#N)C2)C1 [Compound I-6, 4-(2-acryloyl-2,6-diazaspiro[3.4]octan-6-yl)-6-(5-methyl-1H-indazol-4-yl)-2-(((R)-1-methylpyrrolidin-2-yl)methoxy)pyrimidine-5-carbonitrile] | +++ (+++ indicates binding activity greater than 85%)
C=CC(=O)N1CC2(CCN(c3nc(-n4ccnc4)nc(-c4c(C)ccc5[nH]ncc45)c3C#N)C2)C1 [Compound I-11, 4-(2-acryloyl-2,6-diazaspiro[3.4]octan-6-yl)-2-(1H-imidazol-1-yl)-6-(5-methyl-1H-indazol-4-yl)pyrimidine-5-carbonitrile] | +++ (+++ indicates binding activity greater than 85%)
C=CC(=O)N1CC2(CCN(c3nc(N4CCC(N5CCN(C)CC5)CC4)nc(-c4c(C)ccc5cnn(C)c45)c3C#N)C2)C1 [Compound I-160, 4-(2-acryloyl-2,6-diazaspiro[3.4]octan-6-yl)-6-(1,6-dimethyl-1H-indazol-7-yl)-2-(4-(4-methylpiperazin-1-yl)piperidin-1-yl)pyrimidine-5-carbonitrile] | ++ (++ indicates binding activity from 50 to 85%)
C=CC(=O)N1CC2(CCN(c3nc(N4CCC(N5CCN(C)C6(CC6)C5)CC4)nc(-c4c(C)ccc5cnn(C)c45)c3C#N)C2)C1 [Compound I-197, 4-(2-acryloyl-2,6-diazaspiro[3.4]octan-6-yl)-6-(1,6-dimethyl-1H-indazol-7-yl)-2-(4-(4-methyl-4,7-diazaspiro[2.5]octan-7-yl)piperidin-1-yl)pyrimidine-5-carbonitrile] | +++ (+++ indicates binding activity greater than 85%)
C=CC(=O)N1CC2(CCN(c3nc(N4CCOCC4)nc(N4CCCc5ccccc54)c3C#N)C2)C1 [Compound I-88, 4-(2-acryloyl-2,6-diazaspiro[3.4]octan-6-yl)-6-(3,4-dihydroquinolin-1(2H)-yl)-2-morpholinopyrimidine-5-carbonitrile] | + (+ indicates binding activity greater than 0% and up to 50%)
C=CC(=O)N1CC2(CCN(c3nc(OCc4ccccn4)nc(-c4c(C)ccc5cnn(C6CC6)c45)c3C#N)C2)C1 [Compound I-106, 4-(2-acryloyl-2,6-diazaspiro[3.4]octan-6-yl)-6-(1-cyclopropyl-6-methyl-1H-indazol-7-yl)-2-(pyridin-2-ylmethoxy)pyrimidine-5-carbontrile] | + (+ indicates binding activity greater than 0% and up to 50%)
C=CC(=O)N1CC2(CCN(c3nc(N4CCOCC4)nc(-c4cccc5[nH]ncc45)c3C#N)C2)C1 [Compound I-95, 4-(2-acryloyl-2,6-diazaspiro[3.4]octan-6-yl)-6-(1H-indazol-4-yl)-2-morpholinopyrimidine-5-carbonitrile] | + (+ indicates binding activity greater than 0% and up to 50%)
C=CC(=O)N1CC2(CCN(c3nc(N4CCC[C@H](CO)C4)nc(-c4c(C)ccc5[nH]ncc45)c3C#N)C2)C1 [Compound I-211, 4-(2-acryloyl-2,6-diazaspiro[3.4]octan-6-yl)-2-((S)-3-(hydroxymethyl)piperi-din-1-yl)-6-(5-methyl-1H-indazol-4-yl)pyrimidine-5-carbonitrile] | ++ (++ indicates binding activity from 50 to 85%)
C=CC(=O)N1CC2(CCN(c3nc(N4CC(N(C)C)C4)cc(-c4c(C)ccc5[nH]ncc45)c3C#N)C2)C1 [Compound I-187, 2-(2-acryloyl-2,6-diazaspiro[3.4]octan-6-yl)-6-(3-(dimethylamino)azeti-din-1-yl)-4-(5-methyl-1H-indazol-4-yl)nicotinonitrile] | + (+ indicates binding activity greater than 0% and up to 50%)
C=CC(=O)N1CC2(CCN(c3nc(OC[C@@H]4CCCN4C)nc(-c4cccc5ccccc45)c3C#N)C2)C1 [Compound I-101, (S)-4-(2-acryloyl-2,6-diazaspiro[3.4]octan-6-yl)-2-((1-methylpyrrolidin-2-yl)methoxy)-6-(naphthalen-1-yl)pyrimidine-5-carbonitrile] | + (+ indicates binding activity greater than 0% and up to 50%)
C=CC(=O)N1CC2(CCN(c3ncnc(-c4c(C)ccc5[nH]ncc45)n3)C2)C1 [Compound I-280, 1-(6-(4-(5-methyl-1H-indazol-4-yl)-1,3,5-triazin-2-yl)-2,6-diazaspiro[3.4]octan-2-yl)prop-2-en-1-one] | + (+ indicates binding activity greater than 0% and up to 50%)
C=CC(=O)N1CC2(CCN(c3cnc(-c4ccccc4)c(-c4c(C)ccc5[nH]ncc45)c3C#N)C2)C1 [Compound I-207, 5-(2-acryloyl-2,6-diazaspiro[3.4]octan-6-yl)-3-(5-methyl-1H-indazol-4-yl)-2-phenylisonicotinonitrile] | ++ (++ indicates binding activity from 50 to 85%)
C=CC(=O)N1CC2(CCN(c3c(OCc4ccccn4)ncc(-c4c(C)ccc5cnn(C)c45)c3C#N)C2)C1 [Compound I-175, 3-(2-acryloyl-2,6-diazaspiro[3.4]octan-6-yl)-5-(1,6-dimethyl-1H-indazol-7-yl)-2-(pyridin-2-ylmethoxy)isonicoti-nonitrile] | ++ (++ indicates binding activity from 50 to 85%)
C=CC(=O)N1CC2(CCN(c3ncnc(-c4c(C)ccc5[nH]ncc45)c3C)C2)C1 [Compound I-257, 1-(6-(5-methyl-6-(5-methyl-1H-indazol-4-yl)pyrimidin-4-yl)-2,6-diazaspiro[3.4]octan-2-yl)prop-2-en-1-one] | + (+ indicates binding activity greater than 0% and up to 50%)
